Each compound was assayed against T1, KRAS G12C (Homo sapiens, UniProt P01116, G12C) (assay: Inhibitory activity on the KRAS G12C nucleotide (GDP-GTP) exchange reaction). Conditions: Bodipy FL GDP-bound KRAS G12C 25 nM; preincubation at 25° C. for 4 hours; SOS1 100 nM, GppNHp 1 μM, reaction for 30 minutes.
T1 construct: KRAS G12C (amino acid region: 1-169)
Format: biochemical
Experimental: Test Example 2: Evaluation of Inhibitory Activity of Compounds on the KRAS G12C Nucleotide (GDP-GTP) Exchange Reaction
The inhibitory activity of compounds on the exchange reaction of GDP into GppNHp in Bodipy (trademark) FL-bound KRAS G12C was examined by fluorescence measurement using human recombinant KRAS G12C and SOS1 proteins.
For the preparation of KRAS G12C to which Bodipy FL GDP was bound, first, 50 µM KRAS G12C (amino acid region: 1-169) and 1 mM Bodipy FL GDP (Invitrogen, G22360) were incubated for 1 hour in a buffer (20 mM Tris-HCl (pH 7.5), 50 mM NaCl, 1 mM DTT) in ice in the presence of 2.5 mM EDTA. Thereafter, MgCl2 with a final concentration of 10 mM was added, and the mixture was incubated at room temperature for 30 minutes. The protein was allowed to pass through a NAP-5 column to remove free nucleotides and was used for compound evaluation.
For the measurement of the inhibitory activity of compounds on nucleotide exchange reaction, first, the compound of the disclosure was diluted stepwise with dimethyl sulfoxide (DMSO). Subsequently, a solution of the gradually diluted compound of the disclosure in DMSO (the final concentration of DMSO: 5%) and KRAS G12C (25 nM) bound to Bodipy FL GDP were added to a reaction buffer (20 mM Tris-HCl (pH 7.5), 100 mM NaCl, 1 mM MgCl2, 2 mM DTT, 0.1% Tween20), followed by preincubation at 25° C. for 4 hours. Thereafter, Son of Sevenless Homolog 1 (SOS1, amino acid region: 564-1049) and GppNHp (GMPPNP, Jena Bioscience GmbH, NU-401-50) were added such that their final concentration was 100 nM and 1 μM respectively, followed by reaction for 30 minutes. The change in fluorescence intensity of Bodipy FL (excitation wavelength: 485 nm, fluorescence wavelength: 520 nm) immediately after the start of reaction and after 30 minutes from the start of reaction was standardized. The signal value for only DMSO was determined to be 0% inhibition, and the signal value for no addition of GppNHp was determined to be 100% inhibition. The compound concentration at which 50% inhibition is achieved was determined to be the IC50 (nM) and was calculated.

T1 sequence (P01116 1-169 isoform P01116-2 G12C): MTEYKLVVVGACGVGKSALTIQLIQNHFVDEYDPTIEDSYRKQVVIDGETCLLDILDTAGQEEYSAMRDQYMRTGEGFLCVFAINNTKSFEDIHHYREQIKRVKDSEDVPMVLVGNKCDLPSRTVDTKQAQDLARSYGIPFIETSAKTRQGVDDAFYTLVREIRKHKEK

| Structure (SMILES) | IC50 |
| --- | --- |
| C=CC(=O)N(C)C1CN(C(=O)c2c(C)nc(CNc3n[nH]c4cc(Cl)c(C(C)(C)C)cc34)n2C)C1 [Example 51, N-(1-(2-(((5-(tert-butyl)-6-chloro-1H-indazol-3-yl)amino)methyl)-1,4-dimethyl-1H-imidazole-5-carbonyl)azetidin-3-yl)-N-methylacrylamide] | 42 nM |
| C=CC(=O)N1CCC(NC(=O)c2c(C)nc(CNc3n[nH]c4cc(Cl)c(C(C)(C)C)cc34)n2C)CC1 [Example 47, N-(1-acryloylpiperidin-4-yl)-2-(((5-(tert-butyl)-6-chloro-1H-indazol-3-yl)amino)methyl)-1,4-dimethyl-1H-imidazole-5-carboxamide] | 1730 nM |
| C=CC(=O)N1CC(NC(=O)c2c(C(F)F)nc(CNc3n[nH]c4cc(Cl)c(C(C)(C)C)cc34)n2CC2CCCN2C(C)C)C1 (centres unmarked) [Example 95, N-(1-acryloylazetidin-3-yl)-2-(((5-(tert-butyl)-6-chloro-1H-indazol-3-yl)amino)methyl)-4-(difluoromethyl)-1-((1-isopropylpyrrolidine-2-yl)methyl)-1H-imidazole-5-carboxamide] | 44 nM |
| C=CC(=O)N1CC[C@@H](NC(=O)c2c(Cl)nc(CNc3n[nH]c4cc(Cl)c(C(C)(C)C)cc34)n2C)C1 [Example 73, (R)-N-(1-acryloylpyrrolidin-3-yl)-2-(((5-(tert-butyl)-6-chloro-1H-indazol-3-yl)amino)methyl)-4-chloro-1-methyl-1H-imidazole-5-carboxamide] | 52 nM |
| C=CC(=O)N1CC(NC(=O)c2cc(CNc3n[nH]c4cc(Cl)c(C(C)(C)C)cc34)nn2C)C1 [Example 9, N-(1-acryloylazetidin-3-yl)-3-(((5-(tert-butyl)-6-chloro-1H-indazol-3-yl)amino)methyl)-1-methyl-1H-pyrazole-5-carboxamide] | 3140 nM |
| C=CC(=O)N1C[C@H](NC(=O)c2c(C)nc(CNc3n[nH]c4cc(Cl)c(C(C)(C)C)cc34)n2C)C2(CC2)C1 [Example 54, (R)-N-(5-acryloyl-5-azaspiro[2.4]heptan-7-yl)-2-(((5-(tert-butyl)-6-chloro-1H-indazol-3-yl)amino)methyl)-1,4-dimethyl-1H-imidazole-5-carboxamide] | 301 nM |
| C=CC(=O)N1C[C@H](NC(=O)c2c(F)nc(CNc3n[nH]c4cc(Cl)c(C(C)(C)C)cc34)n2C)[C@@H](F)C1 [Example 75, N-((3S,4S)-1-acryloyl-4-fluoropyrrolidin-3-yl)-2-(((5-(tert-butyl)-6-chloro-1H-indazol-3-yl)amino)methyl)-4-fluoro-1-methyl-1H-imidazole-5-carboxamide] | 16 nM |
| C=CC(=O)N1CC(NC(=O)c2cnc(CNc3n[nH]c4cc(Cl)c(C(C)(C)C)nc34)n2C)C1 [Example 40, N-(1-acryloylazetidin-3-yl)-2-(((5-(tert-butyl)-6-chloro-1H-pyrazolo[4,3-b]pyridin-3-yl)amino)methyl)-1-methyl-1H-imidazole-5-carboxamide] | 27 nM |
| C=CC(=O)N1CC(NC(=O)c2oc(CNc3n[nH]c4cc(Cl)c(C(C)(C)C)cc34)nc2C)C1 [Example 11, N-(1-acryloylazetidin-3-yl)-2-(((5-(tert-butyl)-6-chloro-1H-indazol-3-yl)amino)methyl)-4-methyloxazole-5-carboxamide] | 1060 nM |
| C=CC(=O)N1C[C@@H](O)[C@@H](NC(=O)c2c(C)nc(CNc3n[nH]c4cc(Cl)c(C(C)(C)C)cc34)n2C)C1 [Example 56, N-((3S,4R)-1-acryloyl-4-hydroxypyrrolidin-3-yl)-2-(((5-(tert-butyl)-6-chloro-1H-indazol-3-yl)amino)methyl)-1,4-dimethyl-1H-imidazole-5-carboxamide] | 198 nM |
| C=CC(=O)N1CC(NC(=O)c2c(I)nc(CNc3n[nH]c4cc(Cl)c(C(C)(C)C)cc34)n2C)C1 [Example 26, N-(1-acryloylazetidin-3-yl)-2-(((5-(tert-butyl)-6-chloro-1H-indazol-3-yl)amino)methyl)-4-iodo-1-methyl-1H-imidazole-5-carboxamide] | 69 nM |
| C=CC(=O)N1C[C@H](NC(=O)c2c(C)nc(CNc3n[nH]c4cc(Cl)c(C(C)(C)C)cc34)n2C)[C@@H](O)C1 [Example 62, N-((3S,4S)-1-acryloyl-4-hydroxypyrrolidin-3-yl)-2-(((5-(tert-butyl)-6-chloro-1H-indazol-3-yl)amino)methyl)-1,4-dimethyl-1H-imidazole-5-carboxamide] | 96 nM |
| C=CC(=O)NC1CN(C(=O)c2c(C)nc(CNc3n[nH]c4cc(Cl)c(C(C)(C)C)cc34)n2C)C1 [Example 46, N-(1-(2-(((5-(tert-butyl)-6-chloro-1H-indazol-3-yl)amino)methyl)-1,4-dimethyl-1H-imidazole-5-carbonyl)azetidin-3-yl) acrylamide] | 92 nM |
| C=CC(=O)N1CC(NC(=O)c2c(Cl)nc(CNc3n[nH]c4cc(Cl)c(C(=C)C(F)(F)F)cc34)n2C(C)C)C1 [Example 43, N-(1-acryloylazetidin-3-yl)-4-chloro-2-(((6-chloro-5-(3,3,3-trifluoroprop-1-en-2-yl)-1H-indazol-3-yl)amino)methyl)-1-isopropyl-1H-imidazole-5-carboxamide] | 809 nM |
| CC(C)n1c(CNc2n[nH]c3cc(Cl)c(C(C)(C)C)cc23)nc(C(F)F)c1C(=O)NC1CN(C(=O)/C=C/CN(C)C)C1 [Example 84, (E)-2-(((5-(tert-butyl)-6-chloro-1H-indazol-3-yl)amino)methyl)-4-(difluoromethyl)-N-(1-(4-(dimethylamino)but-2-enoyl)azetidin-3-yl)-1-isopropyl-1H-imidazole-5-carboxamide] | 63 nM |

Stronger by IC50, values ahead:

| IC50 | Structure (SMILES) |
| --- | --- |
| 9 nM | C=CC(=O)N1CC(NC(=O)c2c(Cl)nc(CNc3n[nH]c4cc(Cl)c(C(C)(C)C)cc34)n2C2CCCN(CC(F)F)C2)C1 (centres unmarked) [Example 117, N-(1-acryloylazetidin-3-yl)-2-(((5-(tert-butyl)-6-chloro-1H-indazol-3-yl)amino)methyl)-4-chloro-1-(1-(2,2-difluoroethyl)piperidin-3-yl)-1H-imidazole-5-carboxamide] |
| 14 nM | C=CC(=O)N1CC(NC(=O)c2c(C)nc(CNc3n[nH]c4cc(C)c(C(C)(C)C)cc34)n2C)C1 [Example 41, N-(1-acryloylazetidin-3-yl)-2-(((5-(tert-butyl)-6-methyl-1H-indazol-3-yl)amino)methyl)-1,4-dimethyl-1H-imidazole-5-carboxamide] |
| 13 nM | C=CC(=O)N1C[C@H](NC(=O)c2c(Cl)nc(CNc3n[nH]c4cc(Cl)c(C(C)(C)C)cc34)n2C)[C@@H](F)C1 [Example 76, N-((3S,4S)-1-acryloyl-4-fluoropyrrolidin-3-yl)-2-(((5-(tert-butyl)-6-chloro-1H-indazol-3-yl)amino)methyl)-4-chloro-1-methyl-1H-imidazole-5-carboxamide] |
| 14 nM | C=CC(=O)N1CC(NC(=O)c2c(Cl)nc(CNc3n[nH]c4cc(Cl)c(C(C)(C)C)cc34)n2CCCC)C1 [Example 87, N-(1-acryloylazetidin-3-yl)-1-butyl-2-(((5-(tert-butyl)-6-chloro-1H-indazol-3-yl)amino)methyl)-4-chloro-1H-imidazole-5-carboxamide] |
| 7 nM | C=CC(=O)N1CC(NC(=O)c2c(Cl)nc(CNc3n[nH]c4cc(Cl)c(C(C)(C)C)cc34)n2[C@@H]2C[C@@H](O)[C@@H](O)C2)C1 [Example 99] |
| 7 nM | C=CC(=O)N1CC(NC(=O)c2c(Cl)nc(CNc3n[nH]c4cc(Cl)c(C(C)(C)C)cc34)n2C2CC=CC2)C1 [Example 98, N-(1-acryloylazetidin-3-yl)-2-(((5-(tert-butyl)-6-chloro-1H-indazol-3-yl)amino)methyl)-4-chloro-1-(cyclopent-3-en-1-yl)-1H-imidazole-5-carboxamide] |
| 13 nM | C=CC(=O)N1CC(NC(=O)c2c(F)nc(CNc3n[nH]c4cc(Cl)c(C(C)(C)C)cc34)n2C(C)C)C1 [Example 34, N-(1-acryloylazetidin-3-yl)-2-(((5-(tert-butyl)-6-chloro-1H-indazol-3-yl)amino)methyl)-4-fluoro-1-isopropyl-1H-imidazole-5-carboxamide] |
| 9 nM | C=CC(=O)N1CC(NC(=O)c2c(Cl)nc(CNc3n[nH]c4cc(Cl)c(C(C)(C)C)cc34)n2C2CCCOC2)C1 (centres unmarked) [Example 104, N-(1-acryloylazetidin-3-yl)-2-(((5-(tert-butyl)-6-chloro-1H-indazol-3-yl)amino)methyl)-4-chloro-1-(tetrahydro-2H-pyran-3-yl)-1H-imidazole-5-carboxamide] |
